Where “and” joins values, the source holds several entries; their conditions need not be identical. Identical values can stand only once.
Columns and labels:
[1] = biological target: CYP2D6 (Homo sapiens, UniProt P10635); assay: P450-Glo CYP2D6 Luc-IP assay
[2] = biological target: CYP3A4 (Homo sapiens, UniProt P08684); assay: P450-Glo CYP3A4 luciferin isopropylacetal (Luc-IP) assay
Description: To determine the inhibitory potency of compounds on CYP3A4 enzyme, the P450-Glo CYP3A4 luciferin isopropylacetal (Luc-IP) assay was used (Promega, Madison, Wis., USA, Cat. No. V9920). The assay makes use of a luminogenic isopropylacetal (IPA) substrate that is a derivative from beetle luciferin, a substrate of luciferase enzymes. The IPA substrate is converted by CYP3A4 to luciferin, which in turn reacts with luciferase to produce an amount of light that is directly proportional to the activity of CYP3A4. Compounds were serially diluted in DMSO and finally in 400 mM K2HPO4, pH 7.4. 5 μl of compound solution and 5 μl of CYP3A4/substrate solution were combined in the well of a white 384-well Optiplate (Perkin Elmer). The DMSO concentration in the assay was 0.1%. After incubation for 10 minutes at room temperature in the dark, 10 μl of NADPH regeneration system was added and incubation was continued for 10 min. Then, 20 μl of Luciferin Detection Reagent was added to stop the reaction, and incubation was continued for another 20 min. Luminescence was measured on an Envision multimode reader and IC50 values were calculated using XLfit™. […] Instead of in a 96-well plate, the assay was performed in 384-well white Perkin Elmer Optiplate (cat. no. 6007290).

[3] = biological target: T1, Recombinant TDO (Homo sapiens, UniProt P48775); assay: Biochemical assay for TDO (NFK GreenScreen); conditions: 50 nM TDO, 200 μM L-tryptophan
T1 construct: Recombinant TDO (Seegers, N., et al.) and all other assay components were diluted in TDO reaction buffer
T1 sequence (P48775 whole entry): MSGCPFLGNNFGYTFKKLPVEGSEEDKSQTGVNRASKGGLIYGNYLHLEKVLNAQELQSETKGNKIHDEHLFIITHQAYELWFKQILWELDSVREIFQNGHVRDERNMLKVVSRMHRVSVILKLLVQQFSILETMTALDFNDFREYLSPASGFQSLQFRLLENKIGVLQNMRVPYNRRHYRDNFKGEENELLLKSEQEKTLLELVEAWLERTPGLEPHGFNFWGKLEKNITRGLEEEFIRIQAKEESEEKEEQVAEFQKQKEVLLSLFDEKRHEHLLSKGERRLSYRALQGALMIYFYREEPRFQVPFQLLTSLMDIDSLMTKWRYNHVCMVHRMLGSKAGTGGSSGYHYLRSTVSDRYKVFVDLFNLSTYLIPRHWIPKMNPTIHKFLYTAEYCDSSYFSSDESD
Description: Biochemical Assay for TDO
The NFK GreenScreen™ assay technology was also used to determine the inhibitory activity of compounds on TDO (Seegers, N., et al., J. Biol. Screen. 19: 1266; 2014). Compounds were serially diluted in DMSO and finally in TDO reaction buffer, consisting of 100 mM NaH2PO4, pH 7.0, supplemented with 0.02% Tween-20 (cat. No. P7949; Sigma Aldrich). Recombinant TDO (Seegers, N., et al.) and all other assay components were diluted in TDO reaction buffer. 10 μl of compound solution and 20 μl of enzyme solution supplemented with 200 μM ascorbic acid were combined in the well of a black 384-well plate (cat. no. 3573; Corning, Corning, N.Y., USA), and incubated for 60 min at room temperature. Subsequently, 10 μl of 0.8 mM of the substrate L-tryptophan was added, i.e., the final concentration of L-tryptophan was 200 μM. The DMSO concentration in the assay was 0.3%. The concentration of TDO was 50 nM. Incubation was continued for 15 min at room temperature. Then, 10 μl of NFK Green™ (NTRC, Oss, The Netherlands) was added, the plate was sealed, and the reaction was developed for 3 hours at 37° C. To determine the production of N-formyl kynurenine (NFK), the seal was removed and fluorescence was read on an EnVision multimode reader (Perkin Elmer, Waltham, Mass., USA). IC50 were calculated using XLfit™ software (ID Business Solutions, Ltd., Surrey, U.K.).

[4] = biological target: T2, TDO in SW48 colorectal carcinoma cells (Homo sapiens, UniProt P48775); assay: Cell-based assay for TDO in SW48 colorectal carcinoma cells (NFK GreenScreen); conditions: 18 hours with L-tryptophan, read-out: IC50 on TDO in cells
T2 construct: Endogenous expression of TDO has been determined in a variety of cancer cell lines; host or cells: SW48 colorectal carcinoma cells
T2 sequence (P48775 whole entry): as above
Description: The biological activity of TDO inhibitors can be measured by applying above detection methods to cells that are treated with test compound. Endogenous expression of TDO has been determined in a variety of cancer cell lines (Pilotte et al.; Seegers, et al.), or TDO can be expressed in cells that lack endogenous TDO by transfection of an expression vector containing TDO cDNA. […] A preferred assay is the cell-based NFK GreenScreen™ assay (Seegers et al, supra), which measures the cellular inhibitory activity of compounds on TDO. […] No. V9920). Cell-Based Assay for TDO The NFK GreenScreen™ assay technology was also used to determine the inhibitory activity of compounds on TDO in SW48 colorectal carcinoma cells (Seegers, N., et al., J. Biol. Screen. 19: 1266; 2014). […] Compounds were dissolved in DMSO and diluted in RPMI 1640. Final DMSO concentration in the assay was 0.4% (v/v). Eight thousand cells per well in 40 μl were seeded in a black 384-well tissue plate (cat. No. 781086; […] To determine NFK levels, 12 μl NFK Green™ (NTRC, Oss, The Netherlands) was added to each well, and the plate was sealed and incubated for 4 hours at 37° C. Fluorescence was measured on an EnVision multimode reader (Perkin Elmer, Waltham, Mass., USA).

CYP3A4, sequence (P08684 whole entry): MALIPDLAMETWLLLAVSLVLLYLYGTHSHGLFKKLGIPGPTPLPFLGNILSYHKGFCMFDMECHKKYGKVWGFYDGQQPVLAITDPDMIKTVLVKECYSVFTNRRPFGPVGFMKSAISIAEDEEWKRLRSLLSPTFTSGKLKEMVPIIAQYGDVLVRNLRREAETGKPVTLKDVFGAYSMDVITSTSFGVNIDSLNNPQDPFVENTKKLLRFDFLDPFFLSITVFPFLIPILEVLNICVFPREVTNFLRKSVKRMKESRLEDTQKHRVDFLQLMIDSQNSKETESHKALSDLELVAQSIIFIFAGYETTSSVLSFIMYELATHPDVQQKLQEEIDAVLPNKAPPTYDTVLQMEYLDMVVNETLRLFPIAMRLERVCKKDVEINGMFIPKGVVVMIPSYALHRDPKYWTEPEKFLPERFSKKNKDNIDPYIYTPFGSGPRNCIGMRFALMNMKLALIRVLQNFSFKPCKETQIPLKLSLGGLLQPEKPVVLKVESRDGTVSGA
CYP2D6, sequence (P10635 whole entry): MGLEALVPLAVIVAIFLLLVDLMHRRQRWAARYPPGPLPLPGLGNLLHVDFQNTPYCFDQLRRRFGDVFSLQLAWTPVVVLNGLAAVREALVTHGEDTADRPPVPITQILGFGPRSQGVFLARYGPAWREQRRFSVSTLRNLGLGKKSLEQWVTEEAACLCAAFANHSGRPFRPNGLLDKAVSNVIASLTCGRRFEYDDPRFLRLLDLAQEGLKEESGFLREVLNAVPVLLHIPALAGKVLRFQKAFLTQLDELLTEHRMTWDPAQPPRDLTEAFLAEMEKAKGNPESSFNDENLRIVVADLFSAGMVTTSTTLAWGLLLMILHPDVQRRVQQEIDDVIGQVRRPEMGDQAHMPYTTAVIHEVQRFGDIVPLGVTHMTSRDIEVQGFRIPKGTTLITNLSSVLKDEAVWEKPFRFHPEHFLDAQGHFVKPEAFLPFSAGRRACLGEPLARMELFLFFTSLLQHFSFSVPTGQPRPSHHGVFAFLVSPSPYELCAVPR

Structure (SMILES) | IC50 [1] [nM] | IC50 [2] [nM] | IC50 [3] [nM] | IC50 [4]
CSCC(=O)Nc1ccc(-c2c[nH]c3cc(F)ccc23)cc1 [Example 31, N-[4-(6-fluoro-1H-indol-3-yl)phenyl]-2-methylsulfanyl-acetamide] | > 10000 | > 10000 | < 1000 | ≤ 500 nM and 200 to 500 nM
O=C(NC1CCCNC1)c1ccc(-c2c[nH]c3cc(F)ccc23)cc1 (centres unmarked) [Example 118, 4-(6-Fluoro-1H-indol-3-yl)-N-(3-piperidyl)benzamide] | > 10000 | > 10000 | < 1000 | ≤ 200 nM
O=C(Nc1ccc(-c2c[nH]c3cc(F)ccc23)cc1)C1CC12CCNCC2 (centres unmarked) [Example 97, N-[4-(6-Fluoro-1H-indol-3-yl)phenyl]-6-azaspiro[2.5]octane-2-carboxamide] | > 10000 | > 10000 | < 1000 | ≤ 500 nM and 200 to 500 nM
N#CC1(NC(=O)c2ccc(-c3c[nH]c4cc(F)ccc34)cc2)CC1 [Example 12, N-(1-cyanocyclopropyl)-4-(6-fluoro-1H-indol-3-yl)benzamide] | > 10000 | > 10000 | < 1000 | ≤ 500 nM and 200 to 500 nM
O=C(NC[C@@H]1CCCN1)c1ccc(-c2c[nH]c3cc(F)ccc23)cc1 [Example 84, 4-(6-Fluoro-1H-indol-3-yl)-N-[[(2S)-pyrrolidin-2-yl]methyl]benzamide] | > 10000 | > 10000 | < 1000 | ≤ 200 nM
O=C(NCCN1C[C@H](O)[C@@H](O)C1)c1ccc(-c2c[nH]c3cc(F)ccc23)cc1Cl [Example 115, 2-Chloro-N-[2-[(3S,4S)-3,4-dihydroxypyrrolidin-1-yl]ethyl]-4-(6-fluoro-1H-indol-3-yl)benzamide] | > 10000 | > 10000 | < 1000 | ≤ 500 nM and 200 to 500 nM
O=C(Nc1ccc(-c2c[nH]c3cc(F)ccc23)cc1)C1[C@H]2COC[C@@H]12 (stereo partly drawn) [Example 100, (1R,5S)—N-[4-(6-fluoro-1H-indol-3-yl)phenyl]-3-oxabicyclo[3.1.0]hexane-6-carboxamide] | > 10000 | > 10000 | 1000 to 5000 | ≤ 500 nM and 200 to 500 nM
COc1cc(-c2c[nH]c3cc(F)ccc23)ccc1C(=O)N[C@H](C)CO [Example 111, 4-(6-Fluoro-1H-indol-3-yl)-N-[(1R)-2-hydroxy-1-methyl-ethyl]-2-methoxy-benzamide] | > 10000 | > 10000 | 1000 to 5000 | ≤ 500 nM and 200 to 500 nM
CN(C)CCCNC(=O)c1ccc(-c2c[nH]c3cc(F)ccc23)cc1Cl [Example 52, 2-Chloro-N-[3-(dimethylamino)propyl]-4-(6-fluoro-1H-indol-3-yl)benzamide] | > 10000 | > 10000 | < 1000 | ≤ 200 nM
N[C@H]1CCC[C@@H](C(=O)Nc2ccc(-c3c[nH]c4cc(F)ccc34)cc2)C1 [Example 103, (1R,3S)-3-amino-N-[4-(6-fluoro-1H-indol-3-yl)phenyl]cyclohexanecarboxamide] | > 10000 | > 10000 | < 1000 | ≤ 500 nM and 200 to 500 nM
CN1CCN(CCCNC(=O)c2ccc(-c3c[nH]c4cc(F)ccc34)cc2Cl)CC1 [Example 72, 2-Chloro-4-(6-fluoro-1H-indol-3-yl)-N-[3-(4-methylpiperazin-1-yl)propyl]benzamide] | 5000 to 10000 | 5000 to 10000 | < 1000 | ≤ 200 nM
CC(CN(C)C)NC(=O)c1ccc(-c2c[nH]c3cc(F)ccc23)cc1 (centres unmarked) [Example 1, N-[2-(dimethylamino)-1-methyl-ethyl]-4-(6-fluoro-1H-indol-3-yl)benzamide] | > 10000 | > 10000 | < 1000 | ≤ 200 nM
O=C(NCC1(O)CCC1)c1ccc(-c2c[nH]c3cc(F)ccc23)cc1 [Example 62, 4-(6-Fluoro-1H-indol-3-yl)-N-[(1-hydroxycyclobutyl)methyl]benzamide] | > 10000 | 5000 to 10000 | < 1000 | ≤ 500 nM and 200 to 500 nM
O=C(NCC1(F)CCNCC1)c1ccc(-c2c[nH]c3cc(F)ccc23)cc1 [Example 76, 4-(6-Fluoro-1H-indol-3-yl)-N-[(4-fluoro-4-piperidyl)methyl]benzamide] | > 10000 | > 10000 | < 1000 | ≤ 200 nM
O=C(Nc1ccc(-c2c[nH]c3cc(F)ccc23)cc1)C1C2CNCC21 (centres unmarked) [Example 104, N-[4-(6-fluoro-1H-indol-3-yl)phenyl]-3-azabicyclo[3.1.0]hexane-6-carboxamide] | > 10000 | 5000 to 10000 | < 1000 | ≤ 500 nM and 200 to 500 nM
O=C(NCCC(F)(F)F)c1ccc(-c2c[nH]c3cc(F)ccc23)cc1 [Example 134, 4-(6-Fluoro-1H-indol-3-yl)-N-(3,3,3-trifluoropropyl)benzamide] | > 10000 | > 10000 | 1000 to 5000 | ≤ 200 nM
O=C(N[C@H]1CN2CCC1CC2)c1ccc(-c2c[nH]c3cc(F)ccc23)cc1 [Example 133, 4-(6-Fluoro-1H-indol-3-yl)-N-[(3R)-quinuclidin-3-yl]benzamide] | > 10000 | > 10000 | < 1000 | ≤ 200 nM
CS(=O)(=O)N1CCCC(NC(=O)c2ccc(-c3c[nH]c4cc(F)ccc34)cc2)C1 (centres unmarked) [Example 120, 4-(6-Fluoro-1H-indol-3-yl)-N-(1-methylsulfonyl-3-piperidyl)benzamide] | > 10000 | > 10000 | – | ≤ 500 nM and 200 to 500 nM
O=C(NCC1(O)CCCCC1)c1ccc(-c2c[nH]c3cc(F)ccc23)cc1 [Example 89, 4-(6-Fluoro-1H-indol-3-yl)-N-[(1-hydroxycyclohexyl)methyl]benzamide] | > 10000 | > 10000 | 1000 to 5000 | –
CCNC(=O)Nc1ccc(-c2c[nH]c3cc(F)ccc23)cc1 [Example 6, 1-Ethyl-3-[4-(6-fluoro-1H-indol-3-yl)phenyl]urea] | > 10000 | > 10000 | 1000 to 5000 | –
Cn1cc(CCC(=O)Nc2ccc(-c3c[nH]c4cc(F)ccc34)cc2)cn1 [Example 107, N-[4-(6-fluoro-1H-indol-3-yl)phenyl]-3-(1-methylpyrazol-4-yl)propanamide] | > 10000 | > 10000 | – | ≤ 500 nM and 200 to 500 nM
C[C@H](O)CC(=O)Nc1ccc(-c2c[nH]c3cc(F)ccc23)cc1 [Example 34, (3S)—N-[4-(6-fluoro-1H-indol-3-yl)phenyl]-3-hydroxy-butanamide] | > 10000 | > 10000 | < 1000 | –
NCCNC(=O)c1ccc(-c2c[nH]c3cc(F)ccc23)cc1 [Example 90, N-(2-aminoethyl)-4-(6-fluoro-1H-indol-3-yl)benzamide] | > 10000 | > 10000 | < 1000 | –
C[C@H](CO)NC(=O)c1ccc(-c2c[nH]c3ccc(F)cc23)cc1 [Example 37, 4-(5-Fluoro-1H-indol-3-yl)-N-[(1R)-2-hydroxy-1-methyl-ethyl]benzamide] | > 10000 | > 10000 | < 1000 | –
COC(=O)[C@@H](C)NC(=O)c1ccc(-c2c[nH]c3cc(F)ccc23)cc1 [Example 18, Methyl (2R)-2-[[4-(6-fluoro-1H-indol-3-yl)benzoyl]amino]propanoate] | > 10000 | > 10000 | < 1000 | –
CN(C)CCCNC(=O)c1ccc(-c2c[nH]c3ccc(F)cc23)cc1 [Example 38, N-[3-(dimethylamino)propyl]-4-(5-fluoro-1H-indol-3-yl)benzamide] | > 10000 | > 10000 | < 1000 | –
C[C@@H](CO)NC(=O)c1ccc(-c2c[nH]c3ccc(F)cc23)cc1 [Example 40, 4-(5-Fluoro-1H-indol-3-yl)-N-[(1S)-2-hydroxy-1-methyl-ethyl]benzamide] | > 10000 | > 10000 | < 1000 | –
